Here are results for five compounds from ChEMBL document CHEMBL1201862, “PubChem BioAssay data set” (2004).

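Compound exposure: 48 hours, 5 concentrations, 96-well plates. At the GI50, growth is halved.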 The source made the active and inactive calls. Cut-off read from the data, not from the text of the source: active = GI50 up to about 1.1 µM and inactive = higher. Bounds are passed on as bounds.

Among the test systems are OVCAR-5; COLO 205; RPMI-8226; HOP-92; ACHN; OVCAR-8; SN12C; HCT-15; CCRF-CEM; SK-MEL-5; SF-539; KM12; SW-620; U-251; IGROV-1; HOP-62; CAKI-1; UO-31; SK-MEL-2; TK-10.
Holding throughout (test): DTP human tumour cell line panel, 48 h

Usually GI50 stands for the concentration giving 50% growth inhibition. Turning to `CCOC(=O)C(=O)Nc1c(CC)cccc1C(C)CC` (stereo not drawn), the GI50 with OVCAR-5, in the experiment on COLO 205, in the experiment with RPMI-8226, in the experiment on HOP-92, in the experiment with ACHN and in the experiment with OVCAR-8 was > 100 µM (inactive) each time. For the same compound, the GI50 in the experiment with SN12C was > 100 µM (inactive); with HCT-15 it was over 100 µM; with CCRF-CEM it was > 100 µM (inactive); with SK-MEL-5, > 100 µM (inactive); in the experiment on SF-539, > 100 µM (inactive); in the experiment on KM12 it was > 100 µM (inactive). Further, the GI50 in the experiment with SW-620, in the experiment with U-251, with IGROV-1, with HOP-62, with CAKI-1 and in the experiment on UO-31 was > 100 µM (inactive) each time. The GI50 in the experiment on SK-MEL-2 and in the experiment on TK-10 was > 100 µM (inactive) throughout.
In the case of `CSc1ccccc1P(c1ccccc1SC)c1ccccc1SC`, the GI50 in the experiment on OVCAR-5, in the experiment with RPMI-8226, in the experiment on HOP-92, in the experiment on ACHN, in the experiment on OVCAR-8 and in the experiment with SN12C was > 100 µM (inactive) throughout. Besides, the GI50 in the experiment with HCT-15 was over 100 µM; in the experiment with CCRF-CEM, > 100 µM (inactive); in the experiment on SK-MEL-5 it was > 100 µM (inactive); in the experiment with SF-539, > 100 µM (inactive); in the experiment on KM12, > 100 µM (inactive); with SW-620, > 100 µM (inactive). The GI50 was 31.6 µM (inactive) in the experiment on U-251; 25.4 µM (inactive) in the experiment on HOP-62; > 100 µM (inactive) in the experiment on CAKI-1; > 100 µM (inactive) in the experiment on UO-31; > 100 µM (inactive) with SK-MEL-2; > 100 µM (inactive) in the experiment with TK-10.
As to `COc1c(OC)c(OC)c2c(c1OC)c(=O)c1ccccc1n2C` [MELICOPICINE], the GI50 in the experiment with OVCAR-5, in the experiment with COLO 205, with RPMI-8226, in the experiment on HOP-92, in the experiment on ACHN and in the experiment with OVCAR-8 was > 100 µM (inactive) throughout. Also, the GI50 in the experiment on SN12C was > 100 µM (inactive); with HCT-15, 72.3 µM; in the experiment with CCRF-CEM, > 10 µM (inactive); in the experiment with SK-MEL-5 it was > 100 µM (inactive); in the experiment on SF-539, > 100 µM (inactive); in the experiment on KM12 it was 12.9 µM (inactive). For the same compound, the GI50 in the experiment on SW-620, in the experiment with U-251, in the experiment on IGROV-1, in the experiment on HOP-62, with CAKI-1 and in the experiment on UO-31 was > 100 µM (inactive) in each case. The GI50 in the experiment with SK-MEL-2 and in the experiment with TK-10 was > 100 µM (inactive) throughout.
Regarding `CC(C)(C)N(Cc1ccoc1)C(=O)/C=C\[S+]([O-])c1ccccc1` (stereo not drawn), the GI50 with OVCAR-5 was 25.2 µM (inactive); in the experiment on COLO 205, 22.3 µM (inactive); in the experiment with RPMI-8226, 14.4 µM (inactive); with HOP-92 it was 15 µM (inactive); with ACHN, 25.9 µM (inactive); with OVCAR-8, 14.4 µM (inactive). Moreover, the GI50 with SN12C is 20.9 µM (inactive); in the experiment on HCT-15 it was 19.2 µM; with CCRF-CEM, 3.05 µM (inactive); in the experiment with SK-MEL-5, 13.4 µM (inactive); in the experiment with SF-539, 21 µM (inactive); in the experiment with KM12, 16.6 µM (inactive). Also, the GI50 in the experiment with SW-620 is 10.2 µM (inactive); with U-251, 15.5 µM (inactive); in the experiment with IGROV-1, 15 µM (inactive); with HOP-62 it was 16.6 µM (inactive); with CAKI-1, 14.5 µM (inactive); with UO-31 it was 14.5 µM (inactive). In addition, the values for the GI50 in the experiment with SK-MEL-2 and in the experiment on TK-10 were 20.9 µM (inactive) and 44.2 µM (inactive), respectively.
Turning to `O=C(/C=C1\Nc2ncccc2N=C1CC(=O)c1ccccc1)c1ccccc1`, the GI50 with OVCAR-5 is 23.5 µM (inactive); in the experiment with COLO 205, 4.97 µM (inactive); in the experiment with RPMI-8226, 5.37 µM (inactive); in the experiment with HOP-92, 3.52 µM (inactive); in the experiment on ACHN, 4.94 µM (inactive); with OVCAR-8, 5.93 µM (inactive). In addition, the GI50 is 2.24 µM (inactive) in the experiment on SN12C; 2 µM with HCT-15; 2.49 µM (inactive) in the experiment on CCRF-CEM; 4.16 µM (inactive) with SK-MEL-5; 13.2 µM (inactive) in the experiment on SF-539; 6.43 µM (inactive) with KM12. For the same compound, the GI50 with SW-620 is 5.52 µM (inactive); in the experiment with U-251 it was 3.24 µM (inactive); with IGROV-1 it was 2.72 µM (inactive); in the experiment on HOP-62, 0.679 µM (active); in the experiment on CAKI-1, 2.06 µM (inactive); in the experiment with UO-31, 5.47 µM (inactive). Also, the figures for the GI50 in the experiment on SK-MEL-2 and in the experiment on TK-10 were 12.6 µM (inactive) and 35.6 µM (inactive), respectively.
